Laboratory results published in ChEMBL document CHEMBL1149951, “Antileukaemic properties of 12-hydroxydaphnetoxin derivatives” (Bioorg Med Chem Lett, 1994).
Calls of active or inactive are those of the source. The rule behind the calls is not given here.

Tests used:
Mus musculus [1] = assay: In vivo activity against mice infected with murine p388 lymphocytic leukemia cells at a ip dose of 0.8 mg/kg; type: functional; conditions: route intraperitoneal
Mus musculus [2] = assay: In vivo activity against mice infected with murine p388 lymphocytic leukemia cells at a ip dose of 0.1 mg/kg; type: functional; conditions: route intraperitoneal
Mus musculus [3] = assay: In vivo activity against mice infected with murine p388 lymphocytic leukemia cells at a ip dose of 0.2 mg/kg; type: functional; conditions: route intraperitoneal
Mus musculus [4] = assay: In vivo activity against mice infected with murine p388 lymphocytic leukemia cells at a ip dose of 0.4 mg/kg; type: functional; conditions: route intraperitoneal
Mus musculus [5] = assay: In vivo activity against mice infected with murine p388 lymphocytic leukemia cells at a ip dose of 0.05 mg/kg; type: functional; conditions: route intraperitoneal
Mus musculus [6] = assay: In vivo activity against mice infected with murine p388 lymphocytic leukemia cells at a ip dosage range of 0.05-1.6 mg/kg; Inactive; type: functional, organism-based
[7] = In vivo activity against mice infected with murine p388 lymphocytic leukemia cells at a ip dose of 0.4 mg/kg; Toxic; type: toxicity, organism-based; set-up: dose 0.4 mg/kg, route intraperitoneal; conditions: mouse
[8] = In vivo activity against mice infected with murine p388 lymphocytic leukemia cells at a ip dose of 0.8 mg/kg; Toxic; type: toxicity, organism-based; set-up: dose 0.8 mg/kg, route intraperitoneal; conditions: mouse
[9] = In vivo activity against mice infected with mice infected with murine p388 lymphocytic leukemia cells at a ip dose of 0.4 mg/kg; Toxic; type: toxicity, organism-based; set-up: dose 0.4 mg/kg, route intraperitoneal; conditions: mouse
Mus musculus [10] = assay: In vivo activity against mice infected with murine p388 lymphocytic leukemia cells at a ip dose of 0.2 mg/kg; Toxic; type: functional, organism-based; set-up: dose 0.2 mg/kg
[11] = In vivo activity was against mice infected with murine p388 lymphocytic leukemia cells at a ip dose of 0.8 mg/kg; Toxic; type: toxicity, organism-based; set-up: dose 0.8 mg/kg, route intraperitoneal; conditions: mouse

| Structure (SMILES) | ILS at 0.1 mg/kg (Mus musculus [2]) | ILS at 0.2 mg/kg (Mus musculus [3]) | ILS at 0.4 mg/kg (Mus musculus [4]) | ILS at 0.05 mg/kg (Mus musculus [5]) | ILS (Mus musculus [6]) | ILS [8] | other results |
| --- | --- | --- | --- | --- | --- | --- | --- |
| CC(C)C12OC3(c4ccccc4)OC1[C@@H]1[C@@H]4O[C@]4(CO)[C@@H](O)[C@]4(O)C(=O)CC[C@@]4(C)C1(O3)[C@H](C)[C@H]2OC(=O)CCCCc1ccccc1 (stereo partly drawn) | < 20% | < 20% | 29% | < 20% | – | – | ILS at 0.8 mg/kg (Mus musculus [1]): 27% |
| C=C(C)C12OC3(c4ccccc4)OC1[C@@H]1[C@@H]4O[C@@]45COC(C)(C)O[C@H]5[C@]4(O)C(=O)C=C[C@@]4(C)C1(O3)[C@H](C)[C@H]2OC(=O)CCCCCCCCC (stereo partly drawn) | – | – | – | – | inactive | – | – |
| CC(C)C12OC3(c4ccccc4)OC1[C@@H]1[C@@H]4O[C@]4(CO)[C@@H](O)[C@]4(O)C(=O)CC[C@@]4(C)C1(O3)[C@H](C)[C@H]2OC(=O)CCc1ccccc1 (stereo partly drawn) | < 20% | < 20% | 25% | < 20% | – | – | ILS at 0.8 mg/kg (Mus musculus [1]): 30% |
| C=C(C)C12OC3(c4ccccc4)OC1[C@@H]1[C@@H]4O[C@@]45COC(C)(C)O[C@H]5[C@]4(O)C(=O)C=C[C@@]4(C)C1(O3)[C@H](C)[C@H]2OC(=O)c1ccccc1 (stereo partly drawn) | – | – | – | – | inactive | – | – |
| C=C(C)C12OC3(c4ccccc4)OC1[C@@H]1[C@@H]4O[C@]4(CO)[C@@H](O)[C@]4(O)C(=O)C=C[C@@]4(C)C1(O3)[C@H](C)[C@H]2OC(=O)/C=C/C=C/CCCCC (stereo partly drawn) | 33% | 42% | – | 33% | – | Toxic | ILS [7]: Toxic |
| C=C(C)C12OC3(c4ccccc4)OC1[C@@H]1[C@@H]4O[C@@]45COC(C)(C)O[C@H]5[C@]4(O)C(=O)C=C[C@@]4(C)C1(O3)[C@H](C)[C@H]2OC(=O)/C=C/c1ccccc1 (stereo partly drawn) | – | – | – | – | inactive | – | – |
| C=C(C)C12OC3(c4ccccc4)OC1[C@@H]1[C@@H]4O[C@]4(CO)[C@@H](O)[C@]4(O)C(=O)C=C[C@@]4(C)C1(O3)[C@H](C)[C@H]2OC(=O)CCCCCCCCC (stereo partly drawn) | < 20% | < 20% | 42% | < 20% | – | – | ILS at 0.8 mg/kg (Mus musculus [1]): 43% |
| C=C(C)C12OC3(c4ccccc4)OC1[C@@H]1[C@@H]4O[C@]4(CO)[C@@H](O)[C@]4(O)C(=O)C=C[C@@]4(C)C1(O3)[C@H](C)[C@H]2OC(=O)/C=C/c1ccccc1 (stereo partly drawn) | 60% | 73% | – | < 20% | – | Toxic | ILS [9]: Toxic |
| C=C(C)C12OC3(c4ccccc4)OC1[C@@H]1[C@@H]4O[C@]4(CO)[C@@H](O)[C@]4(O)C(=O)C(C)=C[C@H]4C1(O3)[C@H](C)[C@H]2OC(=O)/C=C/C=C/C=C/CCC (stereo partly drawn) [GNIDITRIN] | 68% | – | – | 44% | – | Toxic | ILS (Mus musculus [10]): Toxic; ILS [7]: Toxic |
| CC(C)C12OC3(c4ccccc4)OC1[C@@H]1[C@@H]4O[C@]4(CO)[C@@H](O)[C@]4(O)C(=O)C=C[C@@]4(C)C1(O3)[C@H](C)[C@H]2OC(=O)CCCCc1ccccc1 (stereo partly drawn) | < 20% | 43% | 43% | < 20% | – | Toxic | – |
| C=C(C)C12OC3(c4ccccc4)OC1[C@@H]1[C@@H]4O[C@@]45COC(C)(C)O[C@H]5[C@]4(O)C(=O)C=C[C@@]4(C)C1(O3)[C@H](C)[C@H]2OC(=O)/C=C/C=C/C=C/CCC (stereo partly drawn) | – | – | – | – | inactive | – | – |
| C=C(C)C12OC3(c4ccccc4)OC1[C@@H]1[C@@H]4O[C@@]45COC(C)(C)O[C@H]5[C@]4(O)C(=O)C=C[C@@]4(C)C1(O3)[C@H](C)[C@H]2OC(=O)/C=C/C=C/c1ccccc1 (stereo partly drawn) | – | – | – | – | inactive | – | – |
| CC(C)C12OC3(c4ccccc4)OC1[C@@H]1[C@@H]4O[C@]4(CO)[C@@H](O)[C@]4(O)C(=O)C=C[C@@]4(C)C1(O3)[C@H](C)[C@H]2OC(=O)CCc1ccccc1 (stereo partly drawn) | < 20% | 38% | 40% | < 20% | – | Toxic | – |
| C=C(C)C12OC3(c4ccccc4)OC1[C@@H]1[C@@H]4O[C@@]45COC(C)(C)O[C@H]5[C@]4(O)C(=O)C=C[C@@]4(C)C1(O3)[C@H](C)[C@H]2O (stereo partly drawn) | – | – | – | – | inactive | – | – |
| C=C(C)C12OC3(c4ccccc4)OC1[C@@H]1[C@@H]4O[C@@]45COC(C)(C)O[C@H]5[C@]4(O)C(=O)C=C[C@@]4(C)C1(O3)[C@H](C)[C@H]2OC(=O)/C=C/C=C/CCCCC (stereo partly drawn) | – | – | – | – | inactive | – | – |
| C=C(C)C12OC3(c4ccccc4)OC1[C@@H]1[C@@H]4O[C@]4(CO)[C@@H](O)[C@]4(O)C(=O)C=C[C@@]4(C)C1(O3)[C@H](C)[C@H]2OC(=O)/C=C/C=C/c1ccccc1 (stereo partly drawn) | 33% | 67% | – | 33% | – | – | ILS [11]: Toxic; ILS [7]: Toxic |
| C=C(C)C12OC3(c4ccccc4)OC1[C@@H]1[C@@H]4O[C@]4(CO)[C@@H](O)[C@]4(O)C(=O)C=C[C@@]4(C)C1(O3)[C@H](C)[C@H]2OC(=O)c1ccccc1 (stereo partly drawn) | < 20% | 32% | 40% | < 20% | – | Toxic | – |
| CC(C)C12OC3(c4ccccc4)OC1[C@@H]1[C@@H]4O[C@]4(CO)[C@@H](O)[C@]4(O)C(=O)CC[C@@]4(C)C1(O3)[C@H](C)[C@H]2OC(=O)CCCCCCCCc1ccccc1 (stereo partly drawn) | < 20% | < 20% | 25% | < 20% | – | – | ILS at 0.8 mg/kg (Mus musculus [1]): 25% |
| CC(C)C12OC3(c4ccccc4)OC1[C@@H]1[C@@H]4O[C@]4(CO)[C@@H](O)[C@]4(O)C(=O)C=C[C@@]4(C)C1(O3)[C@H](C)[C@H]2OC(=O)c1ccccc1 (stereo partly drawn) | 30% | 42% | 48% | < 20% | – | Toxic | – |
| C=C(C)C12OC3(c4ccccc4)OC1[C@@H]1[C@@H]4O[C@]4(CO)[C@@H](O)[C@]4(O)C(=O)C=C[C@@]4(C)C1(O3)[C@H](C)[C@H]2O (stereo partly drawn) | – | – | – | – | inactive | – | – |
| CCCCCCCCCC(=O)O[C@@H]1[C@@H](C)C23OC4(c5ccccc5)OC([C@@H]2[C@@H]2O[C@]2(CO)[C@@H](O)[C@]2(O)C(=O)C=C[C@@]32C)C1(C(C)C)O4 (stereo partly drawn) | < 20% | < 20% | 30% | < 20% | – | – | ILS at 0.8 mg/kg (Mus musculus [1]): 27% |
